Test results: ChEMBL document CHEMBL4651402, “Screening of ~5500 FDA-approved drugs and clinical candidates for anti-SARS-CoV-2 activity” (2021)
Numbered stars: 1 amine (or outer) side, 2 acyl side, 3 side chain; on linkers, the order of the positions; unused ones are H or OH. Bridge positions count the residues as written; N and C are the ends. Square brackets hold non-standard residues; d marks the D form. Peptide text beside a SMILES is read from it. I, II: the chains in the order shown. Actinocin(1to9) = Cc1c2oc3c(C)ccc(C(=O)[*:2])c3nc-2c(C(=O)[*:1])c(N)c1=O; NMeV = CN[C@H](C(=O)O)C(C)C; Sar = CNCC(=O)O

Tested on: SARS-CoV-2
Assay: microbe, parasite or virus in culture
Conditions: Severe acute respiratory syndrome coronavirus 2, Vero C1008, 48 h

SMILES | IC50 | IC50 (read-out: pIC50 (converted))
Cc1c(C(=O)N2CCOc3ccc(-c4ccc(N)nc4)cc3C2)ccc(S(C)(=O)=O)c1F | > 20 µM | > 20 µM
O=C(O)COC[C@H]1CC[C@H](COC(=O)N(c2ccccc2)c2ccc(Cl)cc2)CC1 | > 20 µM | > 20 µM
CCOC(=O)C1=C(CN2CCOCC2)NC(c2nccs2)=NC1c1ccc(F)cc1Br (stereo not drawn) | > 20 µM | > 20 µM
CCO[C@@H]1OC(=O)C[C@@H]1NC(=O)[C@@H]1CCCN2C(=O)CC[C@H](NC(=O)c3nccc4ccccc34)C(=O)N12 | > 20 µM | > 20 µM
CC(C)N(C(=O)CN1C(=O)[C@@H](NC(=O)Nc2cccc(C(=O)O)c2)C(=O)N(c2ccccc2)c2ccccc21)c1ccccc1 | > 20 µM | > 20 µM
Cc1cc(C)c(CNC(=O)c2cc(Cl)c3c(c2C)OC(C)([C@H]2CC[C@H](N(C)C)CC2)O3)c(=O)[nH]1 (stereo partly drawn) | > 20 µM | > 20 µM
COC(=O)C1=C(C)NC(C)=C(C(=O)O[C@@H]2CCN(Cc3ccccc3)C2)[C@H]1c1cccc([N+](=O)[O-])c1 | > 20 µM | > 20 µM
CCOC(=O)[C@H](CCc1ccccc1)CC1(C(=O)N[C@H]2CCc3ccccc3N(CC(=O)O)C2=O)CCCC1 | > 20 µM | > 20 µM
C[C@H](N)C(=O)N[C@H](CCC(N)=O)C(=O)O (H-Ala-[dQ]-OH) | > 20 µM | > 20 µM
CC(C)C(NC(=O)C(CC(=O)O)NC(=O)C(CCCCN)NC(=O)C(N)CCCNC(=N)N)C(=O)NC(Cc1ccc(O)cc1)C(=O)O (stereo not drawn) (H-RKDVY-OH; configuration not given here) | > 20 µM | > 20 µM
CC(C)C(N)C(=O)NC(Cc1ccc(O)cc1)C(=O)O (stereo not drawn) (H-Val-Tyr-OH; configuration not given here) | > 20 µM | > 20 µM
Cc1c2oc3c(C)ccc(C(=O)N[C@@H]4C(=O)N[C@@H](C(C)C)C(=O)N5CCC[C@H]5C(=O)N(C)CC(=O)N(C)[C@@H](C(C)C)C(=O)O[C@@H]4C)c3nc-2c(C(=O)N[C@@H]2C(=O)N[C@@H](C(C)C)C(=O)N3CCC[C@H]3C(=O)N(C)CC(=O)N(C)[C@@H](C(C)C)C(=O)O[C@@H]2C)c(N)c1=O (I: TVP[Sar][NMeV] / II: TVP[Sar][NMeV]; ester I:1-I:C, II:1-II:C; linker I:N-II:N via Actinocin(1to9)) | > 20 µM | > 20 µM
COc1cc(Br)c(CC2c3cc(OC)c(OC)cc3CCN2C)cc1OC (racemic) | > 20 µM | > 20 µM
CC(C)CC(NC(=O)CCN)C(=O)O (racemic) | > 20 µM | > 20 µM
C/N=C(\NS(=O)(=O)c1ccc(Cl)cc1)N1C[C@@H](c2ccccc2)C(c2ccc(Cl)cc2)=N1 (racemic) | > 20 µM | > 20 µM
CC(C(O)c1ccccc1)N(C)C (racemic) | > 20 µM | > 20 µM
CC(C)NCC(O)COc1ccc(CC(N)=O)cc1 (racemic) [ATENOLOL] | > 20 µM | > 20 µM
NC(Cc1ccc(Cl)cc1)C(=O)O (racemic) [FENCLONINE] | > 20 µM | > 20 µM
COC1=CC(=O)O[C@@H](/C=C/c2ccccc2)C1 (racemic) [KAVAIN] | > 20 µM | > 20 µM
CC(C)N1CCN(c2ccc(N3CCN(c4ccc(OC[C@H]5OC[C@](Cn6cncn6)(c6ccc(F)cc6F)O5)cc4)CC3)cc2)C1=O (racemic) [PRAMICONAZOLE] | > 20 µM | > 20 µM
CC(CN1CCOCC1)C(C(=O)N1CCCC1)(c1ccccc1)c1ccccc1 (racemic) [RACEMORAMIDE] | > 20 µM | > 20 µM
CCC(CC)C(c1ccc(Nc2nc3ccccc3s2)cc1)n1cncn1 (racemic) [TALAROZOLE] | > 20 µM | > 20 µM

SMILES | IC50 | IC50 (read-out: pIC50 (converted))
C[C@H]1NC(=O)CO[C@@H]1c1ccccc1 (relative stereo) | > 20 µM | > 20 µM
C[C@@H]1N=C(N)O[C@@H]1c1ccccc1 (relative stereo) | > 20 µM | > 20 µM
CO[C@H]1C=C2CCN(C)[C@H]2[C@@H]2c3cc4c(cc3C(=O)O[C@H]21)OCO4 (single isomer, unassigned) | > 20 µM | > 20 µM
COc1ccc2c(O[C@H]3C[C@@H]4C(=O)N[C@@]5(C(=O)NS(=O)(=O)C6CC6)C[C@@H]5/C=C\CCCCN(C)C(=O)[C@H]4C3)cc(-c3nc(C(C)C)cs3)nc2c1C (single isomer, unassigned) | > 20 µM | > 20 µM
CCCn1c(=O)c2[nH]c(C3CCCC3)nc2n(CCC)c1=O [1,3-DIPROPYL-8-CYCLOPENTYLXANTHINE [DPCPX]] | > 20 µM | > 20 µM
NC1(C(=O)O)CC1 [1-Aminocyclopropane carboxylic acid] | > 20 µM | > 20 µM
Cn1cc(CC(N)C(=O)O)c2ccccc21 (stereo not drawn) [1-METHYLTRYPTOPHAN] | > 20 µM | > 20 µM
O=C(/C=C/c1ccccc1)c1ccc(O)cc1O [2',4'-DIHYDROXYCHALCONE] | > 20 µM | > 20 µM
CC[C@H]1OC(=O)[C@H](C)[C@@H](O[C@H]2C[C@@](C)(OC)[C@@H](O)[C@H](C)O2)[C@H](C)[C@@H](O[C@@H]2O[C@H](C)C[C@H](N(C)C)[C@H]2OC(C)=O)[C@](C)(O)C[C@@H](C)C(=O)[C@H](C)[C@@H](O)[C@]1(C)O [2'-O-ACETYLERYTHROMYCIN A] | > 20 µM | > 20 µM
O=[N+]([O-])c1ccc(O)c([N+](=O)[O-])c1 [2,4-DINITROPHENOL] | > 20 µM | > 20 µM
COC1=CC(=O)C=C(OC)C1=O [2,6-DIMETHOXYQUINONE] | > 20 µM | > 20 µM
CC(=O)c1ccc[nH]1 [2-ACETYLPYRROLE] | > 20 µM | > 20 µM
CC(O)COC[C@H]1O[C@@H]2O[C@H]3[C@H](O)[C@@H](O)[C@@H](O[C@H]4[C@H](O)[C@@H](O)[C@@H](O[C@H]5[C@H](O)[C@@H](O)[C@@H](O[C@H]6[C@H](O)[C@@H](O)[C@@H](O[C@H]7[C@H](O)[C@@H](O)[C@@H](O[C@H]8[C@H](O)[C@@H](O)[C@@H](O[C@H]1[C@H](O)[C@H]2O)O[C@@H]8COCC(C)O)O[C@@H]7COCC(C)O)O[C@@H]6COCC(C)O)O[C@@H]5COCC(C)O)O[C@@H]4COCC(C)O)O[C@@H]3COCC(C)O (stereo partly drawn) [2-HYDROXYPROPYL-BETA-CYCLODEXTRIN] | > 20 µM | > 20 µM
O=S(=O)(O)CCS [2-MERCAPTOETHANESULFONIC ACID] | > 20 µM | > 20 µM
COC1(C)CCC2OC2(C)CCC2C1CC2(C)C (stereo not drawn) [2-METHOXY-5 (6)EPOXY-TETRAHYDROCARYOPHYLLENE] | > 20 µM | > 20 µM
COc1cc2c(cc1O)CC[C@@H]1[C@@H]2CC[C@]2(C)[C@@H](O)CC[C@@H]12 [2-METHOXYESTRADIOL] | > 20 µM | > 20 µM
Cc1[nH]c2ccccc2c1CN(C)C [2-METHYL GRAMINE] | > 20 µM | > 20 µM
O=C(O)c1ccccn1 [2-PICOLINIC ACID] | > 20 µM | > 20 µM
O=c1c(O)c(-c2ccccc2)oc2cc(O)ccc12 [3,7-DIHYDROXYFLAVONE] | > 20 µM | > 20 µM
CC1(C)CC2C1CCC1(C)OC2(C)CCC1O (stereo not drawn) [3,7-EPOXYCARYOPHYLLAN-6-OL] | > 20 µM | > 20 µM
CC(=O)c1cc2ccccc2oc1=O [3-ACETYLCOUMARIN] | > 20 µM | > 20 µM
Cn1c(=O)[nH]c(=O)c2[nH]cnc21 [3-METHYLXANTHINE] | > 20 µM | > 20 µM

SMILES | IC50 | IC50 (read-out: pIC50 (converted))
CC1(C)CC23C(=O)CCC(O)C2(C)CCC13 (stereo not drawn) [3-NOR-3-OXOPANASINSAN-6-OL] | > 20 µM | > 20 µM
[N-]=[N+]=N[C@]1(CO)O[C@@H](n2ccc(N)nc2=O)[C@H](O)[C@@H]1O [4'-AZIDOCYTIDINE] | > 20 µM | > 20 µM
COc1ccc(C(=O)/C=C/c2ccccc2)cc1 [4'-METHOXYCHALCONE] | > 20 µM | > 20 µM
COc1ccc(-c2cc(=O)c3ccccc3o2)cc1 [4'-METHOXYFLAVONE] | > 20 µM | > 20 µM
N#CCCCSC(=N)N [4-ISOTHIOUREIDOBUTYRONITRILE] | > 20 µM | > 20 µM
Cc1cc(=O)oc2c(O)c(O)ccc12 [4-METHYLDAPHNETIN] | > 20 µM | > 20 µM
Cc1cc(=O)oc2cc(O)c(O)cc12 [4-METHYLESCULETIN] | > 20 µM | > 20 µM
Cc1cc(=O)oc2cc(O)cc(O)c12 [5,7-DIHYDROXY-4-METHYLCOUMARIN] | > 20 µM | > 20 µM
O=C(O)c1cc2cc(F)ccc2[nH]1 [5-FLUOROINDOLE-2-CARBOXYLIC ACID] | > 20 µM | > 20 µM
O=c1cc(-c2ccccc2)oc2cccc(O)c12 [5-HYDROXYFLAVONE] | > 20 µM | > 20 µM
COc1ccc(-c2cc(=O)c3cc(OC)ccc3o2)cc1 [6,4'-DIMETHOXYFLAVONE] | > 20 µM | > 20 µM
c1cnc2c(c1)CNC2 [6,7-DIHYDRO-5H-PYRROLO[3,4-B]PYRIDINE] | > 20 µM | > 20 µM
NC(=O)c1ccc(N)nc1 [6-AMINONICOTINAMIDE] | > 20 µM | > 20 µM
c1ccc(CNc2ncnc3[nH]cnc23)cc1 [6-BENZYLAMINOPURINE] | > 20 µM | > 20 µM
[N-]=[N+]=CC(=O)CC[C@H](N)C(=O)O [6-DIAZO-5-OXO-L-NORLEUCINE] | > 20 µM | > 20 µM
Nc1nc(OCc2ccccc2)c2nc[nH]c2n1 [6-O-BENZYLGUANINE] | > 20 µM | > 20 µM
O=c1cc(-c2ccccc2)oc2c(O)c(O)ccc12 [7,8-DIHYDROXYFLAVONE] | > 20 µM | > 20 µM
CCc1c2c(nc3ccc(O)cc13)-c1cc3c(c(=O)n1C2)COC(=O)[C@]3(O)CC [7-ETHYL-10-HYDROXYCAMPTOTHECIN] | > 20 µM | > 20 µM
O=c1cc(-c2ccccc2)oc2cc(O)ccc12 [7-HYDROXYFLAVONE] | > 20 µM | > 20 µM
Cn1cnc2[nH]c(=O)[nH]c(=O)c21 [7-METHYLXANTHINE] | > 20 µM | > 20 µM
